Laboratory results from the CombiSolv-Exp solvation set (Vermeire and Green 2021).
One block for each compound: values may come before it.

Assay: solvent given as SMILES

SMILES: CCOCCOC(=O)c1ccccc1C(=O)OCCOCC
- solvation free energy, 298 K (in O): -13.4 kcal/mol

SMILES: O=[N+]([O-])c1ccc(Cl)cc1
- solvation free energy, 298 K (in O): -5.05 kcal/mol

SMILES: Cc1ccc(CO)cc1
- solvation free energy, 298 K (in O): -7.12 kcal/mol

SMILES: O=C(O)CCCCCCCc1ccccc1
- solvation free energy, 298 K (in O): -8.98 kcal/mol

SMILES: Clc1cc(Cl)c(-c2c(Cl)cccc2Cl)c(Cl)c1
- solvation free energy, 298 K (in O): -1.96 kcal/mol

SMILES: CCCC(C)CO (stereo not given)
- solvation free energy, 298 K (in CCCCCCCC): -4.89 kcal/mol
- solvation free energy, 298 K (in CCCCCCCCCC): -4.82 kcal/mol

SMILES: O=C(c1ccccc1[N+](=O)[O-])N(O)c1ccccc1
- solvation free energy, 298 K (in O): -14.5 kcal/mol

SMILES: CCNc1nc(NC(C)C)nc(OC)n1
- solvation free energy, 298 K (in O): -10.2 kcal/mol

SMILES: CCCCCCCC(=O)OC
- solvation free energy, 298 K (in O): -2.04 kcal/mol

SMILES: CC=CCCC
- solvation free energy, 298 K (in NC=O): -1.06 kcal/mol
- solvation free energy, 298 K (in OCCO): -1.25 kcal/mol
- solvation free energy, 298 K (in OCCOCCO): -1.92 kcal/mol
- solvation free energy, 298 K (in OCCOCCOCCO): -2.02 kcal/mol

SMILES: COC(C)(C)C
- solvation free energy, 298 K (in CC(=O)N(C)C): -3.29 kcal/mol
- solvation free energy, 298 K (in CC(C)(C)O): -3.81 kcal/mol
- solvation free energy, 298 K (in CC(C)CC(C)(C)C): -3.58 kcal/mol
- solvation free energy, 298 K (in CC(C)CCl): -3.89 kcal/mol
- solvation free energy, 298 K (in CCC(C)Cl): -3.88 kcal/mol
- solvation free energy, 298 K (in CCCCCCC): -3.54 kcal/mol
- solvation free energy, 298 K (in CCCCCCCC): -3.51 kcal/mol
- solvation free energy, 298 K (in CCCCCCCCCC): -3.48 kcal/mol
- solvation free energy, 298 K (in CCCCCCCCCCCCCCCC): -3.22 kcal/mol
- solvation free energy, 298 K (in CCCCCCCCCCO): -3.73 kcal/mol
- solvation free energy, 298 K (in CCCCCCCCO): -3.52 kcal/mol
- solvation free energy, 298 K (in CCCCCCO): -3.55 kcal/mol
- solvation free energy, 298 K (in CCCCCl): -3.91 kcal/mol
- solvation free energy, 298 K (in CCCCN(C=O)CCCC): -3.34 kcal/mol
- solvation free energy, 298 K (in CCN1CCCC1=O): -3.21 kcal/mol
- solvation free energy, 298 K (in CCN(CC)C(C)=O): -3.4 kcal/mol
- solvation free energy, 298 K (in CCNC(C)=O): -3.26 kcal/mol
- solvation free energy, 298 K (in CCNC=O): -3.21 kcal/mol
- solvation free energy, 298 K (in CN1CCCCC1=O): -3.22 kcal/mol
- solvation free energy, 298 K (in CN(C)C=O): -3.18 kcal/mol
- solvation free energy, 298 K (in CNC(C)=O): -3.12 kcal/mol
- solvation free energy, 298 K (in CNC=O): -3.08 kcal/mol
- solvation free energy, 298 K (in CO): -3.78 kcal/mol
- solvation free energy, 298 K (in COC(=O)OC): -3.52 kcal/mol
- solvation free energy, 298 K (in ClC(Cl)(Cl)Cl): -3.94 kcal/mol
- solvation free energy, 298 K (in ClC(Cl)Cl): -4.88 kcal/mol
- solvation free energy, 298 K (in O): -2.02 kcal/mol
- solvation free energy, 298 K (in [2H]O[2H]): -2.15 kcal/mol

SMILES: BrC(Br)Br
- solvation free energy, 298 K (in O): -1.96 kcal/mol

SMILES: CCCCP(=O)(CCCC)CCCC
- solvation free energy, 298 K (in O): -11.1 kcal/mol

SMILES: COP(=S)(OC)SCn1nnc2ccccc2c1=O
- solvation free energy, 298 K (in O): -10 kcal/mol

SMILES: CCNc1nc(Cl)nc(NC(C)(C)C#N)n1
- solvation free energy, 298 K (in O): -13.2 kcal/mol

SMILES: Oc1ccccc1Cl
- solvation free energy, 298 K (in CC(C)CC(C)(C)C): -5.44 kcal/mol
- solvation free energy, 298 K (in CCCCCC): -5.72 kcal/mol
- solvation free energy, 298 K (in CCCCCCC): -5.71 kcal/mol
- solvation free energy, 298 K (in CCCCCCCC): -5.67 kcal/mol
- solvation free energy, 298 K (in CCCCCCCCCC): -5.63 kcal/mol
- solvation free energy, 298 K (in Cc1ccc(C)cc1): -6.37 kcal/mol
- solvation free energy, 298 K (in Cc1cccc(C)c1): -6.42 kcal/mol
- solvation free energy, 298 K (in Cc1ccccc1C): -6.41 kcal/mol
- solvation free energy, 298 K (in O): -4.56 kcal/mol

Results, then the compound that gave them:

- solvation free energy, 298 K (in CC(C)CC(C)(C)C): -7.14 kcal/mol
- solvation free energy, 298 K (in O): -5.72 kcal/mol
SMILES: c1ccc2ncccc2c1

- solvation free energy, 298 K (in O): -6.32 kcal/mol
SMILES: CN1CCOCC1

- solvation free energy, 298 K (in CC(C)(C)O): -5.91 kcal/mol
- solvation free energy, 298 K (in CC(C)CC(C)(C)C): -4.69 kcal/mol
- solvation free energy, 298 K (in CC(C)CO): -6.19 kcal/mol
- solvation free energy, 298 K (in CC(C)O): -5.88 kcal/mol
- solvation free energy, 298 K (in CCC(C)O): -6 kcal/mol
- solvation free energy, 298 K (in CCOC(C)=O): -5.67 kcal/mol
- solvation free energy, 298 K (in O): -4.63 kcal/mol
SMILES: Cc1ccccn1

- solvation free energy, 298 K (in O): -2.13 kcal/mol
SMILES: CCCCCCCCC=CCCCCCCCC(=O)OC

- solvation free energy, 298 K (in O): -2.73 kcal/mol
SMILES: Clc1cc(Cl)cc(-c2cc(Cl)ccc2Cl)c1

- solvation free energy, 298 K (in O): -4.61 kcal/mol
SMILES: CC(=O)C1CC1

- solvation free energy, 298 K (in O): -17.7 kcal/mol
SMILES: Cc1nc(NS(=O)(=O)c2ccc(N)cc2)oc1C

- solvation free energy, 298 K (in C1COCCO1): -4.48 kcal/mol
- solvation free energy, 298 K (in CCCCCCCC): -3.44 kcal/mol
- solvation free energy, 298 K (in CCCCCCCCCC): -3.4 kcal/mol
- solvation free energy, 298 K (in CCCCCCCCCCCCCCCC): -3.5 kcal/mol
- solvation free energy, 298 K (in CCCCOCCCC): -3.66 kcal/mol
- solvation free energy, 298 K (in O): -4.23 kcal/mol
SMILES: CCCCN

- solvation free energy, 298 K (in O): -11.5 kcal/mol
SMILES: Cc1ccccc1C(=O)N(O)c1ccccc1

- solvation free energy, 298 K (in CCCCCCCC(=O)OCC(COC(=O)CCCCCCC)OC(=O)CCCCCCC): -0.46 kcal/mol
- solvation free energy, 298 K (in CCCCCCCCC): 0.06 kcal/mol
- solvation free energy, 298 K (in CCCCCCCCO): -0.21 kcal/mol
- solvation free energy, 298 K (in CN1CCCC1=O): -1.35 kcal/mol
- solvation free energy, 298 K (in CN(C)C=O): -0.86 kcal/mol
- solvation free energy, 298 K (in O): 0.7 kcal/mol
SMILES: FC(F)F

- solvation free energy, 298 K (in O): -2.5 kcal/mol
SMILES: Cc1ccc2c(C)ccc(C(C)C)c2c1

- solvation free energy, 298 K (in NC=O): -4.52 kcal/mol
SMILES: CC(=O)CCC(C)C

- solvation free energy, 298 K (in O): -4.86 kcal/mol
SMILES: Cc1ccnc(C)c1
